Values after ≈ are worked out from the molar mass of the structure shown.
What was measured:
Typhlodromus pyri = assay: LR50; higher = less toxic; conditions: not reported; mortality
Aphidius rhopalosiphi = assay: LR50; higher = less toxic; conditions: not reported; mortality
Oncorhynchus mykiss = conditions: mortality
Apis mellifera = conditions: acute, duration: 48 hours, mortality
Mus musculus = conditions: chronic; duration: 2 years; histopathology: nonneoplastic
Rattus norvegicus = conditions: for NOAEL: histopathology: nonneoplastic
Canidae = conditions: acute; oral; Dog Other; mortality
Oryctolagus sp. = conditions: developmental; development
Pleurozium sp. = conditions: acute; duration: 72 hours; biomass
Anas platyrhynchos = conditions: oral, mortality
Daphnia magna = conditions: chronic/long-term; duration: 21 days; reproduction
Tagia sp. = conditions: acute; mortality

CCOc1ccc(C(C)(C)COCc2cccc(Oc3ccccc3)c2)cc1 [Etofenprox]
LR50 (Typhlodromus pyri): 0.7 g/ha
LR50 (Aphidius rhopalosiphi): 0.42 g/ha
LC50 (Oncorhynchus mykiss; acute, duration: 96 hours): 2.7 ng/mL (≈ 7.17 nM)
NOEC (Oncorhynchus mykiss; chronic/long-term, duration: 21 days): 0.0021 mg/L
LD50 (Apis mellifera; dermal): 0.015 µg/piece
LD50 (Apis mellifera; oral, unspecified): 0.024 µg/piece
NOAEL (Mus musculus): 3.1 mg/kg-day
LD50 (Rattus norvegicus; acute, oral, mortality): > 2000 mg/kg
NOAEL (Rattus norvegicus; chronic, duration: 2 years): 3.7 mg/kg-day
NOAEL (Rattus norvegicus; subchronic, duration: 13 weeks, oral, diet): 20 mg/kg-day
LD50 (Canidae): > 5000 mg/kg
NOAEL (Oryctolagus sp.): 100 mg/kg-day
NOEC (Pleurozium sp.): 0.15 mg/L
LD50 (Anas platyrhynchos; acute, unspecified): > 2000 mg/kg
LC50 (Anas platyrhynchos; short-term, feed): > 1280 mg/kg-day
LC50 (Colinus virginianus; acute, oral, diet, mortality): > 806 mg/kg-day
NOEL (Colinus virginianus; reproduction developmental): 89.6 mg/kg-day
NOEC (Daphnia magna): 5.4e-05 mg/L
LC50 (Tagia sp.): > 47.2 mg/kg

Reference: EPA's ToxValDB 9.5 (doi:10.2903/j.efsa.2009.213r)
